From patent US7317037B2, “Progesterone receptor modulators comprising pyrrole-oxindole derivatives and uses thereof” (Wyeth, priority 2004, dated 2008)

Each compound was assayed against T1, progesterone receptor (PR) (Homo sapiens, UniProt P06401) (assay: T47D cell alkaline phosphatase assay (antagonist mode)). Conditions: T47D cells, antagonist mode in the presence of 1 nM progesterone, 24 hours; read-out: IC50 (nM), T47D Cell Alkaline Phosphatase Assay.
T1 construct: Effects of Progestins and Antiprogestins on Alkaline Phosphatase Activity in T47D Cells; endogenous in cells; host or cells: T47D cells
T1 sequence (P06401 1-933): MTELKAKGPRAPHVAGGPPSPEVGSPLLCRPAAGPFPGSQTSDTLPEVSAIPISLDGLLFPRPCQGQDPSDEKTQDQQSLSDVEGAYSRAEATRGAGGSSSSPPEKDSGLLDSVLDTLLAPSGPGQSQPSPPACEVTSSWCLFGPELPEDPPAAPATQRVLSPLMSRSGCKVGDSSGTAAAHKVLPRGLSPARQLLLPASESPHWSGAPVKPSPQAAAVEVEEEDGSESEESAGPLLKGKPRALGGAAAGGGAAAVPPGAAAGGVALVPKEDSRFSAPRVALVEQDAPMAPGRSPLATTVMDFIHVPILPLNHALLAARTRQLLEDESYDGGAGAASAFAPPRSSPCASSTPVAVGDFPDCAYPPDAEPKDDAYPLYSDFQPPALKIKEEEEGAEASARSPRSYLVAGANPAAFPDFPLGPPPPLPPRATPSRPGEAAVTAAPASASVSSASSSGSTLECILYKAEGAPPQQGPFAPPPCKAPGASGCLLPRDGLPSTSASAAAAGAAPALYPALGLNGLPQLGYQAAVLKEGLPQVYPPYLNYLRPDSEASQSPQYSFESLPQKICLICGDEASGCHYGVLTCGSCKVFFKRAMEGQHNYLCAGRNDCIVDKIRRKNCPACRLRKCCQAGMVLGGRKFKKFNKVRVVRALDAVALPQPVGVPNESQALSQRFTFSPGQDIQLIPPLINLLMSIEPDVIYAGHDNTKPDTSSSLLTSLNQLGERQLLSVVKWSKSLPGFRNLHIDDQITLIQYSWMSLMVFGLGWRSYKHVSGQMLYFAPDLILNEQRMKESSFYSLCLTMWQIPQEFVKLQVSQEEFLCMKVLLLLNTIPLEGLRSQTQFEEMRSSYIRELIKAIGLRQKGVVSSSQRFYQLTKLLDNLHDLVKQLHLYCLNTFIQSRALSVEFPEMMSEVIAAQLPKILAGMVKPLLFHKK
Type: cell-based
Experimental: A. Effects of Progestins and Antiprogestins on Alkaline Phosphatase Activity in T47D Cells (T47D Alkaline Phosphatase Assay)
Culture medium: DMEM:F12 (1:1) (GIBCO, BRL) supplemented with 5% (v/v) charcoal stripped fetal bovine serum (not heat-inactivated), 100 U/mL penicillin, 100 μg/mL streptomycin, and 2 mM GlutaMax (GIBCO, BRL).
Alkaline phosphatase assay buffer: I. 0.1M Tris-HCl, pH 9.8, containing 0.2% Triton X-100, 0.1M Tris-HCl, pH 9.8, containing 4 mM p-nitrophenyl phosphate (Sigma).
2. Cell Culture and Treatment:
Frozen T47D cells are thawed in a 37° C. water bath and diluted to 280,000 cells/mL in culture medium. To each well in a 96-well plate (Falcon, Becton Dickinson Labware), 180 μl of diluted cell suspension is added. Twenty μl of reference or test compounds diluted in the culture medium is then added to each well. When testing for progestin antagonist activity, reference antiprogestins or test compounds are added in the presence of 1 nM progesterone. The cells are incubated at 37° C. in a 5% CO2 humidified atmosphere for 24 hours. For high throughput screening, one concentration of each compound will be tested at 0.3 μg/mL. Based on an average molecular weight of 300 g/mol for the compounds in the library, the concentration is approximately 1 μM. Subsequently, active compounds will be tested in dose response assays to determine EC50 and IC50.
3. Alkaline Phosphatase Enzyme Assay:
At the end of treatment, the medium is removed from the plate. Fifty μl of assay buffer I is added to each well. The plates are shaken in a titer plate shaker for 15 min. Then 150 μl of assay buffer II is added to each well. Optical density measurements are taken at 5 min intervals for 30 min at a test wavelength of 405 nm.
4. Analysis of Dose-Response Data.
For reference and test compounds, a dose response curve is generated for dose vs. the rate of enzyme reaction (slope). Square root-transformed data are used for analysis of variance and nonlinear dose response curve fitting for both agonist and antagonist modes. Huber weighting is used to down-weight the effects of outliers. EC50 or IC50 values are calculated from the retransformed values. JMP software (SAS Institute, Inc.) is used for both one-way analysis of variance and non-4 linear dose response analysis in both single dose and dose response studies.
Progesterone and trimegestone are reference progestins and RU486 is the reference antiprogestin. All reference compounds are run in full dose response curves and the EC50 and IC50 values are calculated.

In order of falling IC50:
1. Cn1c(C#N)ccc1-c1cc(F)c2c(c1)C(C)(C)C(=O)N2CCc1ccccc1 [5-[7-fluoro-3,3-dimethyl-2-oxo-1-(2-phenylethyl)-2,3-dihydro-1H-indol-5-yl]-1-methyl-1H-pyrrole-2-carbonitrile]  351 nM
2. Cn1c(C#N)ccc1-c1cc(F)c2c(c1)C(C)(C)C(=O)N2C1CCCCC1 [5-(1-cyclohexyl-7-fluoro-3,3-dimethyl-2-oxo-2,3-dihydro-1H-indol-5-yl)-1-methyl-1H-pyrrole-2-carbonitrile]  194 nM
3. Cn1c(C#N)ccc1-c1cc(F)c2c(c1)C(C)(C)C(=O)N2Cc1ccccc1 [5-(1-benzyl-7-fluoro-3,3-dimethyl-2-oxo-2,3-dihydro-1H-indol-5-yl)-1-methyl-1H-pyrrole-2-carbonitrile]  164 nM
4. CC(C)(C)OC(=O)n1c(C#N)ccc1-c1cc(F)c2c(c1)C(C)(C)C(=O)N2 [tert-butyl 2-cyano-5-(7-fluoro-3,3-dimethyl-2-oxo-2,3-dihydro-1H-indol-5-yl)-1H-pyrrole-1-carboxylate]  125 nM
5. Cn1c(C#N)ccc1-c1cc(F)c2c(c1)CC(=O)N2 [5-(7-fluoro-2-oxo-2,3-dihydro-1H-indol-5-yl)-1-methyl-1H-pyrrole-2-carbonitrile]  109 nM
6. CC1(C)C(=O)Nc2c(F)cc(-c3ccc(C#N)[nH]3)cc21 [5-(7-fluoro-3,3-dimethyl-2-oxo-2,3-dihydro-1H-indol-5-yl)-1H-pyrrole-2-carbonitrile]  107 nM
7. COC(=O)CN1C(=O)C(C)(C)c2cc(-c3ccc(C#N)n3C)cc(F)c21 [methyl [5-(5-cyano-1-methyl-1H-pyrrol-2-yl)-7-fluoro-3,3-dimethyl-2-oxo-2,3-dihydro-1H-indol-1-yl]acetate]  48 nM
8. Cn1c(C#N)ccc1-c1ccc2c(c1F)C(C)(C)C(=O)N2 [5-(4-fluoro-3,3-dimethyl-2-oxo-2,3-dihydro-1H-indol-5-yl)-1-methyl-1H-pyrrole-2-carbonitrile]  30 nM
9. C#CCN1C(=O)C(C)(C)c2cc(-c3ccc(C#N)n3C)cc(F)c21 [5-(7-fluoro-3,3-dimethyl-2-oxo-1-prop-2-yn-1-yl-2,3-dihydro-1H-indol-5-yl)-1-methyl-1H-pyrrole-2-carbonitrile]  30 nM
10. CC(C)CN1C(=O)C(C)(C)c2cc(-c3ccc(C#N)n3C)cc(F)c21 [5-(7-fluoro-1-isobutyl-3,3-dimethyl-2-oxo-2,3-dihydro-1H-indol-5-yl)-1-methyl-1H-pyrrole-2-carbonitrile]  29.9 nM
11. CCN1C(=O)C(C)(C)c2cc(-c3ccc(C#N)n3C)cc(F)c21 [5-(1-ethyl-7-fluoro-3,3-dimethyl-2-oxo-2,3-dihydro-1H-indol-5-yl)-1-methyl-1H-pyrrole-2-carbonitrile]  29.5 nM
12. CCCN1C(=O)C(C)(C)c2cc(-c3ccc(C#N)n3C)cc(F)c21 [5-(7-fluoro-3,3-dimethyl-2-oxo-1-propyl-2,3-dihydro-1H-indol-5-yl)-1-methyl-1H-pyrrole-2-carbonitrile]  26.5 nM
13. Cn1c(C#N)ccc1-c1cc(F)c2c(c1)C(C)(C)C(=O)N2C1CCCC1 [5-(1-cyclopentyl-7-fluoro-3,3-dimethyl-2-oxo-2,3-dihydro-1H-indol-5-yl)-1-methyl-1H-pyrrole-2-carbonitrile]  25.2 nM
14. CN1C(=O)C(C)(C)c2cc(-c3ccc(C#N)n3C)cc(F)c21 [5-(7-Fluoro-1,3,3-trimethyl-2-oxo-2,3-dihydro-1H-indol-5-yl)-1-methyl-1H-pyrrole-2-carbonitrile]  22.3 nM
15. CC(C)N1C(=O)C(C)(C)c2cc(-c3ccc(C#N)n3C)cc(F)c21 [5-(7-fluoro-1-isopropyl-3,3-dimethyl-2-oxo-2,3-dihydro-1H-indol-5-yl)-1-methyl-1H-pyrrole-2-carbonitrile]  13 nM
16. Cn1c(C#N)ccc1-c1cc(F)c2c(c1)C1(CC1)C(=O)N2 [5-(7′-fluoro-2′-oxo-1′,2′-dihydrospiro[cyclopropane-1,3′-indol]-5′-yl)-1-methyl-1H-pyrrole-2-carbonitrile]  10.8 nM
17. Cn1c(C#N)ccc1-c1ccc2c(c1F)C1(CC1)C(=O)N2 [5-(4′-fluoro-2′-oxo-1′,2′-dihydrospiro[cyclopropane-1,3′-indol]-5′yl)-1-methyl-1H-pyrrole-2-carbonitrile]  7.8 nM
18. CCC1(CC)C(=O)Nc2c(F)cc(-c3ccc(C#N)n3C)cc21 [5-(3,3-diethyl-7-fluoro-2-oxo-2,3-dihydro-1H-indol-5-yl)-1-methyl-1H-pyrrole-2-carbonitrile]  4.95 nM
19. C=CCN1C(=O)C(C)(C)c2cc(-c3ccc(C#N)n3C)cc(F)c21 [5-(1-allyl-7-fluoro-3,3-dimethyl-2-oxo-2,3-dihydro-1H-indol-5-yl)-1-methyl-1H-pyrrole-2-carbonitrile]  4.5 nM
20. Cn1c(C#N)ccc1-c1cc(F)c2c(c1)C1(CCCC1)C(=O)N2 [5-(7′-fluoro-2′-oxo-1′,2′-dihydrospiro[cyclopentane-1,3′-indol]-5′-yl)-1-methyl-1H-pyrrole-2-carbonitrile]  3.2 nM
21. Cn1c(C#N)ccc1-c1cc(F)c2c(c1)C1(CCC1)C(=O)N2 [5-(7′-fluoro-2′-oxo-1′,2′-dihydrospiro[cyclobutane-1,3′-indol]-5′-yl)-1-methyl-1H-pyrrole-2-carbonitrile]  2.75 nM
